Reference: article PMC10746280, “Bacterial efflux pump modulators prevent bacterial growth in macrophages and under broth conditions that mimic the host environment” (mBio, 2023)

What was measured:
[1] = tested on: S. Typhimurium SL1344 (sifB::gfp) in RAW 264.7 macrophages; experiment: SAFIRE macrophage assay: intracellular bacterial load (GFP signal within macrophages); assay type: cell-based, Salmonella enterica serotype Typhimurium; settings: for 5 uM Avg Antibacterial Score / 25 uM Avg Antibacterial Score: 'Toxic' given instead of a score; for IC50: Salmonella enterica, TYPHIMURIUM, RAW264.7, read-out: SAFIRE IC50
Method in brief: (§1)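 RAW 264.7 macrophages infected with S. Typhimurium SL1344 sifB::gfp (MOI ~30), gentamicin 40 µg/mL, then compound from 2 h to 18 h post-infection. Confocal imaging with MitoTracker and DAPI; toxicity as adherent MitoTracker-positive macrophage count, bacterial load as GFP+ macrophage area.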

[2] = tested on: RAW 264.7 macrophages; experiment: SAFIRE macrophage assay: host toxicity (adherent macrophage count, morphology); assay type: cell-based
Method in brief: as §1

SMILES	5 uM Avg Antibacterial Score [1]	25 uM Avg Antibacterial Score [1]	5 uM Avg Cell # Score [2]	25 uM Avg Cell # Score [2]	toxicity to infected macrophages in SAFIRE ([2]; 16 h after treatment)	IC50 [1] [nM]
CNC1CCN(C[C@H](O)COc2ccc(Cl)c(Cl)c2)C1 (some centres unmarked) [CU162]	68	46	124	126		
CNC1CCN(C[C@@H](O)COc2ccc(Cl)c(Cl)c2)C1 (some centres unmarked) [CU163]	65	47	101	111		
OC1CCN(CC(O)COc2ccc(Cl)c(Cl)c2)CC1 (centres unmarked) [CU164]	106	82	98	126		
NC1CCN(CC(O)COc2ccc(Cl)cc2)C1 (centres unmarked) [CU165]	63	32	105	109		
NC1CCN(CC(O)COc2ccc(Cl)cc2Cl)C1 (centres unmarked) [CU166]	44	19	105	108		
NC1CCN(CC(O)COc2ccc(F)cc2F)C1 (centres unmarked) [CU167]	75	58	109	113		
CCOC(=O)c1cccc(OCC(O)CN2CCC(N)C2)c1 (centres unmarked) [CU168]	73	55	101	111		
OC(COc1ccc(F)c(F)c1)CN1CCC(Nc2nccc(C(F)(F)F)n2)CC1 (centres unmarked) [CU169]	84	6	106	91		
OC(COc1ccc(F)c(F)c1)CN1CCC(Nc2ncccn2)CC1 (centres unmarked) [CU170]	109	107	100	107		
NC1CCN(CC(O)COc2ccc(F)c(F)c2)CC1 (centres unmarked) [CU171]	61	45	108	96		
NC1CCN(CC(O)COc2ccc(F)c(F)c2)C1 (centres unmarked) [CU172]	70	57	108	103		
NC1CCN(CC(O)COc2ccc(Cl)c(Cl)c2)CC1 (centres unmarked) [CU173]	20	30	98	43	toxic	
OC(CNC1CCNCC1)COc1ccc(Cl)c(Cl)c1 (centres unmarked) [CU174]	40	18	98	97		
CN1CCC(N(C)CC(O)COc2ccc(Cl)c(Cl)c2)C1 (centres unmarked) [CU175]	65	22	108	95		
CNC1CCN(CC(O)COc2ccc(F)c(F)c2)C1 (centres unmarked) [CU176]	83	58	102	111		
CN(CC(O)COc1ccc(Cl)c(Cl)c1)C1CCNCC1 (centres unmarked) [CU177]	45	16	101	96		
CN(CC(O)COc1ccc(F)c(F)c1)C1CCNCC1 (centres unmarked) [CU178]	72	51	99	97		
OC(COc1ccc(Cl)c(Cl)c1)CN1CCC(n2ccnc2)CC1 (centres unmarked) [CU179]	36	19	98	91		45
OC(COc1ccc(Cl)c(Cl)c1)CN1CCN(C2CCOC2)CC1 (centres unmarked) [CU180]	106	82	96	100		
OC(COc1ccc(Cl)c(Cl)c1)CN1CCN(C2COC2)CC1 (centres unmarked) [CU181]	109	94	100	101		
OC(COc1ccc(Cl)c(Cl)c1)CN1CCN(C2CC2)CC1 (centres unmarked) [CU182]	105	73	102	101		
OC(COc1ccc(Cl)c(Cl)c1)CN1CCN(CC2CC2)CC1 (centres unmarked) [CU183]	92	25	103	105		
O=C1CN(CC(O)COc2ccc(Cl)c(Cl)c2)CCN1 (centres unmarked) [CU184]	103	102	91	97		

SMILES	5 uM Avg Antibacterial Score [1]	25 uM Avg Antibacterial Score [1]	5 uM Avg Cell # Score [2]	25 uM Avg Cell # Score [2]	toxicity to infected macrophages in SAFIRE ([2]; 16 h after treatment)	IC50 [1] [nM]
OC(COc1ccc(Cl)c(Cl)c1)CN1CCC(N2CCOCC2)CC1 (centres unmarked) [CU185]	87	76	120	125		
OC(COc1cccc2ncccc12)CN1CCC(Nc2nccc(C(F)(F)F)n2)CC1 (centres unmarked) [CU186]	101	9	121	72		
NC1CCN(CC(O)COc2cccc(Cl)c2)CC1 (centres unmarked) [CU188]	33	25	110	111		
NC1CCN(CC(O)COc2ccccc2Cl)CC1 (centres unmarked) [CU189]	61	49	107	109		
NC1CCN(CC(O)COc2ccc(Cl)cc2Cl)CC1 (centres unmarked) [CU190]	24	21	101	87		
NC1CCN(CC(O)COc2cc(Cl)cc(Cl)c2)CC1 (centres unmarked) [CU191]	14	Toxic	100	15		
NC1CCN(CC(O)COc2c(Cl)cccc2Cl)CC1 (centres unmarked) [CU192]	52	30	96	92		6.9
N[C@@H]1CCN(CC(O)COc2ccc(Cl)c(Cl)c2)C1 (some centres unmarked) [CU193]	28	14	100	98		11.5
N[C@H]1CCN(CC(O)COc2ccc(Cl)c(Cl)c2)C1 (some centres unmarked) [CU194]	18	12	100	103		
O=C1OC(COc2ccc(Cl)c(Cl)c2)CN1c1ccc(N2CCOCC2)cc1 (centres unmarked) [CU195]	107	103	114	82		
O=C(O)c1cn(C2CC2)c2cc(N3CCN(CC(O)COc4ccc(Cl)c(Cl)c4)CC3)c(F)cc2c1=O (centres unmarked) [CU196]	86	Toxic	103	13		
N=C(N)NC1CCN(CC(O)COc2ccc(Cl)c(Cl)c2)C1 (centres unmarked) [CU197]	103	87	109	117		
OC(CNC1CCNCC1)COc1ccc(Cl)cc1 (centres unmarked) [CU198]	83	34	110	110		
OC(CNC1CCNCC1)COc1cccc(Cl)c1 (centres unmarked) [CU199]	83	55	105	115		
OC(CNC1CCNCC1)COc1ccccc1Cl (centres unmarked) [CU200]	92	65	99	108		
OC(CNC1CCNCC1)COc1ccc(Cl)cc1Cl (centres unmarked) [CU201]	44	13	109	102		
OC(CNC1CCNCC1)COc1cc(Cl)cc(Cl)c1 (centres unmarked) [CU202]	34	11	100	95		
N[C@@H]1CCN(CC(O)COc2cc(Cl)cc(Cl)c2)C1 (some centres unmarked) [CU203]	33	9	98	106		
N[C@H]1CCN(CC(O)COc2cc(Cl)cc(Cl)c2)C1 (some centres unmarked) [CU204]	28	8.51	93	101		
NCC1CCN(CC(O)COc2ccc(Cl)c(Cl)c2)CC1 (centres unmarked) [CU205]	12	Toxic	131	13		
NCC1CCN(CC(O)COc2ccc(Cl)c(Cl)c2)C1 (centres unmarked) [CU206]	25	12	124	87		
c1ccc2c(CN3CCNCC3)cccc2c1 [CU207]	98	59	113	121		
NCC1CCN(CC(O)COc2cc(Cl)cc(Cl)c2)CC1 (centres unmarked) [CU208]	20	Toxic	167	15		
